Test: 14C-radiolabeled Tasimelteon administered to healthy male subjects; HPLC radio-chromatography of plasma, urine and feces
Format: in vivo, human
Settings: for share of the radioactivity of the administered dose in urine: 0-72 h urine samples; for share of the radioactivity of the administered dose in feces: fecal samples; for feces (0-120 h) (% dose) / plasma (% AUC) / urine (0-72 h) (% dose) / total excreta (% dose): healthy male subjects, 100 μCi/100 mg 14C-Tasimelteon; for plasma (% AUC): plasma 0.5-24 h; for total excreta (% dose): urine plus feces; for share of the total plasma radioactivity: plasma samples
Protocol: ^14C-radiolabeled (1R-trans)-N-[[2-(2,3-dihydro-4-benzofuranyl)cyclopropyl]methyl]propanamide was administered to healthy male subjects at a dosage of 100 μCi/100 mg. Plasma, urine, and fecal samples were then collected from subjects at predetermined time intervals following administration (0.5 h, 1 h, 2 h, 8 h, and 24 h for plasma; 0-6 h, 6-12 h, 12-24 h, and 24-72 h for urine; and 0-24 h, 24-48 h, and 48-120 h for feces). Plasma and fecal samples were subjected to methanol extraction to remove proteins. All samples were centrifuged to remove solids prior to HPLC radio-chromatography. Radioactivity in each fraction was determined by Packard TopCount® NXT™ Microplate Scintillation and Luminescence Counter technology. Selected urine, plasma, and fecal extracts were analyzed by LC/MS, coupled with a radioactivity monitor.
The proportionate presence of (1R-trans)-N-[[2-(2,3-dihydro-4-benzofuranyl)cyclopropyl]methyl]propanamide and the M9 and M11 metabolites in plasma, urine, and feces of the subjects is shown below in Table 1.

| share of the radioactivity of the administered dose in feces | feces (0-120 h) (% dose) | plasma (% AUC) | urine (0-72 h) (% dose) | total excreta (% dose) | share of the total plasma radioactivity | Structure (SMILES) | share of the radioactivity of the administered dose in urine |
| --- | --- | --- | --- | --- | --- | --- | --- |
| minor fecal metabolites | 0.85 % dose | 19.79 | 29.69 % dose | 30.54 % dose | ~20% | CCC(=O)NC[C@@H]1C[C@H]1c1cccc(O)c1CC(=O)O [M9] | ~30% |
| – | not detected | 3.56 | not detected | not detected | approximately 3.5% | CCC(=O)NC[C@@H]1C[C@H]1c1cccc(O)c1CCO [M11] | Neither unchanged Tasimelteon nor metabolite M11 were found |
| minor fecal metabolites | 0.04 % dose | 8.22 | not detected | 0.04 % dose | approximately 8% | CCC(=O)NC[C@@H]1C[C@H]1c1cccc2c1CCO2 [Tasimelteon, (1R-trans)-N-[[2-(2,3-dihydro-4-benzofuranyl)cyclopropyl]methyl]propanamide] | Neither unchanged Tasimelteon nor metabolite M11 were found |
